The results in this text go back to ChEMBL document CHEMBL5620413, “Novel pterostilbene derivatives ameliorate heart failure by reducing oxidative stress and inflammation through regulating Nrf2/NF-κB signaling pathway” (Eur J Med Chem, 2023).

This assay relates to RAW264.7. The assay is described as follows: Antiinflammatory activity in mouse RAW264.7 cells assessed as decrease in LPS-induced NO production at 10 uM preincubated for 1 hr followed by LPS treatment for 24 hrs by Griess reagent based assay. As to conditions: time 25.0 hrs. Type of assay: functional, cell-based.

The structures appear in SMILES notation. The source made the active and inactive calls. No cut-off for these calls is given here.

In the case of `C=CCOc1ccc(/C=C/c2cc(OC)cc(OC)c2/C=C/C(=O)c2ccccc2)cc1`, the result was Active. Turning to `CCCCOc1ccc(/C=C/c2cc(OC)cc(OC)c2/C=C/C(=O)c2cccc(C)c2)cc1`, the outcome was Active. In the case of `CCCCOc1ccc(/C=C/c2cc(OC)cc(OC)c2/C=C/C(=O)c2cccc(Br)c2)cc1`, the result was Active. Take `CCC(C)Oc1ccc(/C=C/c2cc(OC)cc(OC)c2C2CC(C)=NN2C(C)=O)cc1` (stereo not drawn): the outcome was Active. To `CCCOc1ccc(/C=C/c2cc(OC)cc(OC)c2C2CC(C)=NN2C(C)=O)cc1` (stereo not drawn) belongs “Active”; to `C=CCOc1ccc(/C=C/c2cc(OC)cc(OC)c2/C=C/C(=O)c2cccc(OC)c2)cc1`, “Active”. Consider `COCCOc1ccc(/C=C/c2cc(OC)cc(OC)c2/C=C/C(=O)c2cccc(C)c2)cc1`, for which the result was Active. Next, `COc1cc(/C=C/c2ccc(OCCOc3ccccc3)cc2)c(C2CC(C)=NN2C(C)=O)c(OC)c1` (stereo not drawn): “Active”. With `COCCCCOc1ccc(/C=C/c2cc(OC)cc(OC)c2C2CC(C)=NN2C(C)=O)cc1` (stereo not drawn), the outcome was Active. Next, `COCCCCOc1ccc(/C=C/c2cc(OC)cc(OC)c2/C=C/C(=O)c2cccc(C)c2)cc1`: “Active”. Next, `COc1cc(/C=C/c2ccc(OCC3CCCCC3)cc2)c(C2CC(C)=NN2C(C)=O)c(OC)c1` (stereo not drawn): “Active”. To `C=CCOc1ccc(/C=C/c2cc(OC)cc(OC)c2/C=C/C(=O)c2cccc(Br)c2)cc1` belongs “Active”; to `COc1cc(/C=C/c2ccc(OCc3ccc(F)cc3)cc2)c(/C=C/C(=O)c2cccc(C)c2)c(OC)c1`, “Active”.

In the case of `C=CCOc1ccc(/C=C/c2cc(OC)cc(OC)c2/C=C/C(=O)c2cccc(C)c2)cc1`, the result was Active. To `COCCOc1ccc(/C=C/c2cc(OC)cc(OC)c2/C=C/C(=O)c2ccccc2)cc1` belongs “Active”; to `C=CCOc1ccc(/C=C/c2cc(OC)cc(OC)c2C2CC(C)=NN2C(C)=O)cc1` (stereo not drawn), “Active”; to `CCCOc1ccc(/C=C/c2cc(OC)cc(OC)c2/C=C/C(=O)c2cccc(C)c2)cc1`, “Active”.

Turning to `COCCOc1ccc(/C=C/c2cc(OC)cc(OC)c2/C=C/C(=O)c2cccc(OC)c2)cc1`, the outcome was Active.
